Results reported in patent publication US20100029654A1, “CARDIOVASCULAR COMPOSITIONS AND USE OF THE SAME FOR THE TREATMENT OF ALZHEIMER'S DISEASE” (MOUNT SINAI SCHOOL OF MEDICINE, priority 2006, published 2010).
Structures can show the parent of a compound that is named as a salt. Where two headings read alike, the source gives them in different places.

Key:
Aβ1-40 = Aβ1-40 content in conditioned medium of primary cortico-hippocampal neuron cultures from Tg2576 mice (ELISA; primary and secondary dose-response screening); format: cell-based, mouse; details: for activity at 100 µM / EC50: Mus musculus; for activity at 100 µM: 24 h, read-out: Ab1-40 (% of ctl); for activity at 100 µM / Ab1-40 (% of ctl): drug 100 μM; for EC50: read-out: EC50 (molar) Aβ1-40; for reduced Aβ1-40: <85% of ctl
Outline: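 Primary cortico-hippocampal neurons from embryonic Tg2576 mice were plated at 1.0×10^5 cells per well on poly-D-lysine-coated 96-well plates in Neurobasal with 2% B27, 0.5 mM L-glutamine and 1% penicillin-streptomycin. Cultures received drug in 1% DMSO, and Aβ1-40 in the conditioned medium was measured by BioSource ELISA 24 hours after treatment, relative to vehicle controls.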

Aβ1-42 [1] = assay: Aβ1-42 content in conditioned medium of primary cortico-hippocampal neuron cultures from Tg2576 mice (ELISA; primary and secondary dose-response screening); format: cell-based, mouse; details: for activity at 100 µM: Mus musculus, Neuron, 24 h, read-out: Ab1-42 (% of ctl); for activity at 100 µM / Ab1-42 (% of ctl): drug 100 μM; for reducing Aβ1-42: <85% of ctl
Outline: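 This screen tested cardiovascular drugs for Aβ-lowering in Tg2576 embryonic cortico-hippocampal neuron cultures plated at 1.0×10^5 cells per well in poly-D-lysine-coated 96-well plates with Neurobasal/B27 medium. Drugs at 100 μM were added directly to the medium in duplicate, with 1% DMSO alone as the control. Conditioned medium was then collected, and its Aβ1-42 level was quantified with BioSource ELISA kits.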

Aβ1-42 [2] = assay: as above; format: cell-based, mouse; details: Mus musculus, 24 h; for EC50: Neuron, read-out: EC50 (molar) Aβ1-42; for activity at 100 µM: primary screening, drug 100 μM, Tg2576 neuron cultures, table sorted by Aβ1-42, read-out: Ab1-42 (% of ctl)
[3] = test system: primary cortico-hippocampal neuron cultures; assay: MTT in primary screening
[4] = test system: primary cortico-hippocampal neuron cultures; assay: lactate dehydrogenase (LDH) activity assay in parallel neuron cultures; details: for LDH at E-5M % of change: drug at E-5M
Method: For in vitro treatments drugs available from “The Spectrum Collection” in stocks of 10 mM in DMSO were applied directly to cultures to the desired concentrations (final 1% DMSO); control primary neuron cultures from Tg2576 embryos were treated with vehicle resulting in a final 1% DMSO.
Cell viability was assessed using a commercial available LDH assay kit according to the manufacture's instruction (Promega).

[5] = Neuron, Primary Screening, table sorted by Aβ1-40
[6] = Neuron, primary screening, Tg2576 neuron cultures, table sorted by Aβ1-42
[7] = Neuron, secondary dose-response screening 0.01-100 μM, 24 hours
[8] = Primary Screening, table sorted by Aβ1-40
[9] = primary screening, Tg2576 neuron cultures, table sorted by Aβ1-42
[10] = conditioned medium of primary cortico-hippocampal neuron cultures from Tg2576 embryos, 24 hours after treatment, relative to vehicle (1% DMSO) control
[11] = secondary dose-response screening 0.01-100 μM, 24 hours
[12] = primary screening, table sorted by Aβ1-42

| SMILES | activity at 100 µM (Aβ1-40; [5]) | activity at 100 µM (Aβ1-40; [6]) | EC50 (Aβ1-40; [7]) | reduced Aβ1-40 (Aβ1-40; primary screening) | activity at 100 µM (Aβ1-42 [1]; [8]) | activity at 100 µM (Aβ1-42 [1]; [9]) | EC50 (Aβ1-42 [2]; [10]) | EC50 (Aβ1-42 [2]; [11]) | MTT (% of ctl) [3, 8] | MTT (% of ctl) [3, 12] | LDH (% of ctl) [4, 8] | LDH at E-5M % of change [4] | LDH (% of ctl) [4, 12] | activity at 100 µM (Aβ1-40; [9]) | Ab1-40 (% of ctl) (Aβ1-40; [8]) | Ab1-42 (% of ctl) (Aβ1-42 [1]; [8]) | activity at 100 µM (Aβ1-42 [2]) | reducing Aβ1-42 (Aβ1-42 [1]; primary screening) | EC50 (molar) Aβ1-40 (Aβ1-40; [10]) | EC50 (molar) Aβ1-40 (Aβ1-40; [11]) |
| --- | --- | --- | --- | --- | --- | --- | --- | --- | --- | --- | --- | --- | --- | --- | --- | --- | --- | --- | --- | --- |
| CC(CCc1ccccc1)NCC(O)c1ccc(O)c(C(N)=O)c1 (stereo not shown) [Labetalol Hydrochloride] | 84.9% | 84.9% | 4.06 nM | reduced Aβ1-40 | 106% | 106% | 719 nM | 719 nM | 93.0 % of ctl | 93.0 % of ctl | 164.0 % of ctl | −5.0% | 164.0 % of ctl | – | – | – | – | – | – | – |
| CO[C@H]1[C@H](O)[C@H](O[C@H]2CC[C@@]3(C)[C@H](CC[C@@H]4[C@@H]3CC[C@]3(C)[C@@H](C5=CC(=O)OC5)CC[C@]43O)C2)O[C@@H](C)[C@@H]1O [Neriifolin] | – | – | – | reduced Aβ1-40 | – | – | – | – | 101.2 % of ctl | 101.2 % of ctl | 110.8 % of ctl | – | 110.8 % of ctl | 79.7% | 79.7 % of ctl | 90.3 % of ctl | 90.3% | – | – | – |
| COC(=O)C1=C(C)NC(C)=C(C(=O)OC)C1c1ccccc1[N+](=O)[O-] [Nifedipine] | 73.4% | 73.4% | – | – | 90.6% | 90.6% | 73.6 nM | 73.6 nM | 98.7 % of ctl | 98.7 % of ctl | 76.1 % of ctl | 12.0% | 76.1 % of ctl | – | – | – | – | – | – | – |
| COCCOC(=O)C1=C(C)NC(C)=C(C(=O)OC(C)C)C1c1cccc([N+](=O)[O-])c1 (stereo not shown) [Nimodipine] | 79.1% | 79.1% | – | – | 90.9% | 90.9% | 28100 nM | 28100 nM | 115.6 % of ctl | 115.6 % of ctl | 100.4 % of ctl | −4.0% | 100.4 % of ctl | – | – | – | – | – | – | – |
| CCOC(=O)C1=C(C)NC(C)=C(C(=O)OC)C1c1cccc([N+](=O)[O-])c1 (stereo not shown) [Nitrendipine] | 33% | 33% | 822000 nM | – | 64% | 64% | 1600 nM | 1600 nM | 100.8 % of ctl | 100.8 % of ctl | 94.3 % of ctl | 5.0% | 94.3 % of ctl | – | – | – | – | – | – | – |
| NCCc1cc(O)c(O)cc1O [Oxidopamine Hydrochloride] | – | – | – | reduced Aβ1-40 | – | – | – | – | 121.5 % of ctl | 121.5 % of ctl | 103.6 % of ctl | – | 103.6 % of ctl | 43.8% | 43.8 % of ctl | 36.4 % of ctl | 36.4% | useful in reducing Aβ1-42 | – | – |
| CCC[C@H](N[C@@H](C)C(=O)N1[C@H](C(=O)O)C[C@@H]2CCCC[C@@H]21)C(=O)OCC [Perindopril Erbumine] | 83.8% | 83.8% | – | reduced Aβ1-40 | 88.8% | 88.8% | 4.5 nM | 4.05 nM | 95.3 % of ctl | 95.3 % of ctl | 72.5 % of ctl | −5.6% | 72.5 % of ctl | – | – | – | – | – | no fit | no fit |
| CO[C@H]1[C@H](O)[C@H](O[C@H]2CC[C@@]3(C=O)[C@H](CC[C@@H]4[C@@H]3CC[C@]3(C)[C@@H](C5=CC(=O)OC5)CC[C@]43O)C2)O[C@@H](C)[C@@H]1O [Peruvoside] | – | – | – | – | – | – | – | – | 98.8 % of ctl | 98.8 % of ctl | 105.5 % of ctl | – | 105.5 % of ctl | 115% | 115.3 % of ctl | 90.9 % of ctl | 90.9% | – | – | – |
| CC(COc1ccccc1)N(CCCl)Cc1ccccc1 (stereo not shown) [Phenoxybenzamine Hydrochloride] | – | – | – | – | – | – | – | – | 72.8 % of ctl | 72.8 % of ctl | 81.3 % of ctl | – | 81.3 % of ctl | 87.5% | 87.5 % of ctl | 90.7 % of ctl | 90.7% | – | – | – |
| Cc1ccc(N(CC2=NCCN2)c2cccc(O)c2)cc1 [Phentolamine Hydrochloride] | 83.4% | 83.4% | 12100 nM | reduced Aβ1-40 | 72.9% | 72.9% | – | 86.5 nM | 110.3 % of ctl | 110.3 % of ctl | 90.7 % of ctl | −3.4% | 90.7 % of ctl | – | – | – | – | useful in reducing Aβ1-42 | – | – |
| COc1cc2nc(N3CCN(C(=O)c4ccco4)CC3)nc(N)c2cc1OC [Prazosin Hydrochloride] | 7.6% | 7.6% | 571000 nM | reduced Aβ1-40 | 23.2% | 23.2% | 67600 nM | 67600 nM | 99.9 % of ctl | 99.9 % of ctl | 260.2 % of ctl | 5.0% | 260.2 % of ctl | – | – | – | – | useful in reducing Aβ1-42 | – | – |
| COC(=O)[C@H]1[C@H]2C[C@@H]3c4[nH]c5cc(OC)ccc5c4CCN3C[C@H]2C[C@@H](OC(=O)c2cc(OC)c(OC)c(OC)c2)[C@@H]1OC [Reserpine] | 24.7% | 24.7% | 56600 nM | reduced Aβ1-40 | 38.7% | 38.7% | – | 902000 nM | 87.2 % of ctl | 87.2 % of ctl | 157.8 % of ctl | −3.4% | 157.8 % of ctl | – | – | – | – | useful in reducing Aβ1-42 | – | – |
